Experimental data taken from US20220104493A1, “HERBICIDAL COMPOUNDS” (SYNGENTA CROP PROTECTION AG, priority 2019, published 2022).

Tests used:
Experiment in all cases: Post-emergence efficacy, Method A
Type in all cases: in vivo
[1] = system: Ipomoea hederacea (IPOHE); settings: 500 g/Ha, 100=total damage to plant, 0=no damage, evaluated after 7 and 14 days, read-out: Control of weed species after post-emergence application, IPOHE
[2] = system: Euphorbia heterophylla (EPHHL); settings: 500 g/Ha, 100=total damage to plant, 0=no damage, evaluated after 7 and 14 days, read-out: Control of weed species after post-emergence application, EPHHL
[3] = system: Chenopodium album (CHEAL); settings: 500 g/Ha, 100=total damage to plant, 0=no damage, evaluated after 7 and 14 days, read-out: Control of weed species after post-emergence application, CHEAL
[4] = system: Amaranthus palmeri (AMAPA); settings: 500 g/Ha, 100=total damage to plant, 0=no damage, evaluated after 7 and 14 days, read-out: Control of weed species after post-emergence application, AMAPA
Lolium perenne (LOLPE) = settings: 500 g/Ha, 100=total damage to plant, 0=no damage, evaluated after 7 and 14 days, read-out: Control of weed species after post-emergence application, LOLPE
[5] = system: Digitaria sanguinalis (DIGSA); settings: 500 g/Ha, 100=total damage to plant, 0=no damage, evaluated after 7 and 14 days, read-out: Control of weed species after post-emergence application, DIGSA
Eleusine indica (ELEIN) = settings: 500 g/Ha, 100=total damage to plant, 0=no damage, evaluated after 7 and 14 days, read-out: Control of weed species after post-emergence application, ELEIN
[6] = system: Echinochloa crus-galli (ECHCG); settings: 500 g/Ha, 100=total damage to plant, 0=no damage, evaluated after 7 and 14 days, read-out: Control of weed species after post-emergence application, ECHCG
Setaria faberi (SETFA) = settings: 500 g/Ha, 100=total damage to plant, 0=no damage, evaluated after 7 and 14 days, read-out: Control of weed species after post-emergence application, SETFA

Row | Structure (SMILES) | pest or weed control at 500 g/ha [1] [%] | pest or weed control at 500 g/ha [2] [%] | pest or weed control at 500 g/ha [3] [%] | pest or weed control at 500 g/ha [4] [%] | pest or weed control at 500 g/ha (Lolium perenne (LOLPE)) [%] | pest or weed control at 500 g/ha [5] [%] | pest or weed control at 500 g/ha (Eleusine indica (ELEIN)) [%] | pest or weed control at 500 g/ha [6] [%] | pest or weed control at 500 g/ha (Setaria faberi (SETFA)) [%]
1 | Nc1nsc(-c2cc[n+](CCC(=O)O)cc2)n1 [Compound A92] | 20 | 80 | 60 | 100 | 10 | 80 | 20 | 60 | 60
2 | Nc1nnc(-c2cc[n+](CC(=O)O)cc2)s1 [Compound A94] | 10 | 30 | 40 | 30 | 10 | 30 | 40 | 20 | 10
3 | Cc1nnc(-c2cc[n+](CC(=O)O)cc2)s1 [Compound A95] | 10 | 10 | 30 | 40 | 0 | 10 | 60 | 20 | 10
4 | O=S(=O)([O-])C[n+]1ccc(-c2nc(Br)ns2)cc1 [Compound A96] | 30 | 100 | 100 | 100 | 100 | 100 | 90 | 100 | 80
5 | O=C(O)CC[n+]1ccc(-c2nc(O)ns2)cc1 [Compound A97, 3-[4-(3-hydroxy-1,2,4-thiadiazol-5-yl)pyridin-1-ium-1-yl]propanoic acid bromide] | 10 | 10 | 50 | 0 | 10 | 0 | 10 | 0 | 10
6 | O=C(O)C[n+]1ccc(-c2nc(O)ns2)cc1 [Compound A98] | 10 | 30 | 40 | 50 | 0 | 70 | 10 | 40 | 20
